The numbers were not newly measured in US12115245B2 (Xiamen University, priority 2019, dated 2024), which cites them from elsewhere.

Where a SMILES comes first, the peptide text is derived from it.

As for `C[C@H](N)C(=O)N[C@@H](CCC(N)=O)C(=O)O` [Ala-Gln, L-alanyl-L-glutamine] (H-Ala-Gln-OH), the “solubility in water / aqueous solutions” value is “very soluble in water”.
Consider `NC(=O)CC[C@H](N)C(=O)O` [Gln, Glutamine], for which the “solubility in water / aqueous solutions” value is “low solubility in aqueous solutions”.
